Reference: BindingDB's records for patent US11111233 (Shenzhen Targetrx, 2021)

What was measured:
[1] = target: Epidermal growth factor receptor [T790M,L858R] (Homo sapiens, UniProt P00533, L858R/T790M); assay: Kinase Inhibition Assay
Experimental: (§1) Then, it was diluted in DMSO with a 3-fold series gradient dilution for 10 times. […] The corresponding substrate and ATP were added and reacted at room temperature for 20 minutes (in which a negative and a positive control were set: the negative control is blank and the positive control is erlotinib). […] The inhibitions of the enzyme activity by the compounds at different concentrations were then fitted using Graphpad 5.0 software according to the four-parameter equation, and the IC50 values were calculated.

[2] = target: Epidermal growth factor receptor (Homo sapiens, UniProt P00533); assay: Kinase Inhibition Assay
Epidermal growth factor receptor, sequence (P00533 whole entry): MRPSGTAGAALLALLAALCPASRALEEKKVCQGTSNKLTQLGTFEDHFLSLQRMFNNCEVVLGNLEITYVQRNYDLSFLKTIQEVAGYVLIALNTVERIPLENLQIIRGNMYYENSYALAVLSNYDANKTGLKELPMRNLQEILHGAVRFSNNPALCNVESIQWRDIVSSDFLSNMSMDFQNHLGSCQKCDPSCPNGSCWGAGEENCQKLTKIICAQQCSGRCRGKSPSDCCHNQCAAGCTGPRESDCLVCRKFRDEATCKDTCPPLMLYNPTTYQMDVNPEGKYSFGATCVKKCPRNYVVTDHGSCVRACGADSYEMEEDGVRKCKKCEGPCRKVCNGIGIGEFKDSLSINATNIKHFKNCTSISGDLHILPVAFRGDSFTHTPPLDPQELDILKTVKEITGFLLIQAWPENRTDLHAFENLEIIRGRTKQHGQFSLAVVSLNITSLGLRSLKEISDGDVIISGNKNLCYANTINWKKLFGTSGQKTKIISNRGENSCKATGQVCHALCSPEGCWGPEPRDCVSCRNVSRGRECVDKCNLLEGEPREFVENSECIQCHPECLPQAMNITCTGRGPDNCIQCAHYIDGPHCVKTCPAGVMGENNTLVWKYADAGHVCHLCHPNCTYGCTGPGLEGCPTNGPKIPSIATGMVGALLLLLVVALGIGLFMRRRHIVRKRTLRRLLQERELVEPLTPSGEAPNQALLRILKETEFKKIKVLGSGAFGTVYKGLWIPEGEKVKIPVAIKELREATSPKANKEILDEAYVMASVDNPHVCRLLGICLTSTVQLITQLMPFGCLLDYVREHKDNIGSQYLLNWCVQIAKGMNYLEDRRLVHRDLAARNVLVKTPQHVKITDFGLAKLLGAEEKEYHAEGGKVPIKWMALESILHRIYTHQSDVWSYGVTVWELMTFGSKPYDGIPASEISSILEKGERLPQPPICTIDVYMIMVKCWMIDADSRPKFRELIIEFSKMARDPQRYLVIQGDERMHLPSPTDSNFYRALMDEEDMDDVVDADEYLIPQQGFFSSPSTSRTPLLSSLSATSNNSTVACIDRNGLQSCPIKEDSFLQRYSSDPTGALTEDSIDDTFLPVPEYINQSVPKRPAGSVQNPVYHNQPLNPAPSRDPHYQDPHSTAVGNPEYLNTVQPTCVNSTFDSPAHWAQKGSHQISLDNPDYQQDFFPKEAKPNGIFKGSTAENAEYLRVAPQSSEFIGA
Experimental: as §1

Epidermal growth factor receptor [T790M,L858R], sequence (P00533 25-1210 T790M/L858R limits assumed): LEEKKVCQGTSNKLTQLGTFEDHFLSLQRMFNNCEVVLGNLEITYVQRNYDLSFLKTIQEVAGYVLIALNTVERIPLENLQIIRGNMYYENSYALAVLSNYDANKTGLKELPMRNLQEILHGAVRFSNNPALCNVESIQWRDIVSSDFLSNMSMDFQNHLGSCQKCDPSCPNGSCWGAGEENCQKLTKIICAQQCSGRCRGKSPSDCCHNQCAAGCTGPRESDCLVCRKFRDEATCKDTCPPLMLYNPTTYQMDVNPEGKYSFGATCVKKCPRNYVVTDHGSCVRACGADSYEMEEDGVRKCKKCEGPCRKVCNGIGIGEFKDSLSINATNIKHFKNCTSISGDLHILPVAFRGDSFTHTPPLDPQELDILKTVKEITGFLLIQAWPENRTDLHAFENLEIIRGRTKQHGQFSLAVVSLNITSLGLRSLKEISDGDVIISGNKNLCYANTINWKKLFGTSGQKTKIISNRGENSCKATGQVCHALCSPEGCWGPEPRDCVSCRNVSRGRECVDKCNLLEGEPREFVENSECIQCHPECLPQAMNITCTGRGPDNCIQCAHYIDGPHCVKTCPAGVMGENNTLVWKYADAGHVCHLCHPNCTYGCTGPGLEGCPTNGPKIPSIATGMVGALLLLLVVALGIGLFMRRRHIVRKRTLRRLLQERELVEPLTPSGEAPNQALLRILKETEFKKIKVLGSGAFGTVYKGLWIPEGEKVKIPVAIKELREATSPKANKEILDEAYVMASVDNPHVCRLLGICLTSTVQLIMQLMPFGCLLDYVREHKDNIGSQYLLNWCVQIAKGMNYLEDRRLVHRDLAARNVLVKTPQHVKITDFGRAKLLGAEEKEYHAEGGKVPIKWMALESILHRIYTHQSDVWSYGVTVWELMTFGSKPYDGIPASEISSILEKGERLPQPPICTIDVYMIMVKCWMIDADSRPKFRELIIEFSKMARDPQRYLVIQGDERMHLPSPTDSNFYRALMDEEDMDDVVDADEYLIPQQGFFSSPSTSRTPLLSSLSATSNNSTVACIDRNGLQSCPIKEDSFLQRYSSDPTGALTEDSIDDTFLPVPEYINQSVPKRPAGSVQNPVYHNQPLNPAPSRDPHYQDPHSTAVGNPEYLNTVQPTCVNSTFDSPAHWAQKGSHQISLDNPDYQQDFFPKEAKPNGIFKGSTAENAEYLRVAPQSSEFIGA

| SMILES | IC50 [1] | IC50 [2] |
| --- | --- | --- |
| C=CC(=O)Nc1cc(Nc2nccc(-c3cc(F)c4nc(C)n(C(C)C)c4c3)n2)c(OC)cc1OCCN(C)C [US11111233, Example 12] | < 1 nM |  |
| C=CC(=O)Nc1cc(Nc2nccc(-c3cc(F)c4nc(C)n(C(C)C)c4c3)n2)c(OC)cc1N1CCOCC1 [US11111233, Example 16] |  | > 100 nM |
